Assay: Jurkat reporter gene cellular assay
Format: cell-based
Conditions: Homo sapiens; Jurkat/NF-κB-luc/PD1 + Raji-PD-L1 coculture, OKT3 1 μg/mL, 6 hrs, activation fold; read-out: Cell Activity EC50
Description: The effect of compounds of the examples of the present invention and positive compounds on the interaction between PD-1 and PD-L1 expressed on cell surfaces, and the related influence on T cell functions, were determined by a Jurkat reporter gene cellular assay.
Briefly, the reporter gene plasmid of NF-κB-luc and the plasmid of human PD-1 were transfected into Jurkat cells to establish a stably transfected cell line capable of stably expressing both PD-1 and NF-κB-Luc reporter genes; the expression level of PD-1 on the cell surface was confirmed by flow cytometry; and the expression of the reporter gene was confirmed via the response of the reporter gene stimulated by OKT-3 and Raiji cells.
In addition, the plasmid of human PD-L1 was transfected into Raji cells to obtain a cell line capable of stably expressing PD-L1. Jurkat/NF-κB-luc/PD1 cells and Raji-PD-L1 cells were then cocultured and stimulated with OKT-3. On this basis, the compounds were added, and the enhancement of the signal pathway of T cell activation by the inhibitory effect of the compounds on the interaction between PD-1 and PD-L1 was evaluated by readings of reporter gene responses. The specific experimental process was as follows: • 1. 30 μL of compound or antibody solution was added to each well of a white 96-well plate (corning, 3610) at different diluted concentrations, and 10 μL of OKT3 (Biolegend, 317326) was then added (the final concentration of OKT3: 1 μg/mL); • 2. 20 μL of Raji-PD-L1 cell suspension was added to each well with 5*10^4 cells for each well, and was incubated in an incubator for 20 min; • 3. 20 μL of Jurkat/NF-Kb-luc/PD-1 cell suspension was added to each well with 5*10^4 cells for each well, and well mixed, and 6 hrs later, Bright-glo (Promega, E2620) was applied and plates were read on Envision; • 4. The reading of each well treated with the compound was compared with the reading of each well treated with DMSO to obtain the activation fold of the compound; • 5. EC50 values of compounds and positive compounds of the examples of the present invention were determined by non-linear regression analysis of activation folds at different compound concentrations.

Row | SMILES | EC50
1 | COc1cc(/C(F)=C/c2cccc(-c3cccc(NC(=O)c4nc5c(n4C)CCN(CCC46CCC(C(=O)O)(CC4)C6)C5)c3Cl)c2Cl)ncc1CN1CCC[C@H]1C(C)(C)O [Example 52, (S,Z)-4-(2-(2-((2,2′-dichloro-3′-(2-fluoro-2-(5-((2-(2-hydroxypropan-2-yl)pyrrolidin-1-yl)methyl)-4-methoxypyridin-2-yl)vinyl)-[1,1′-biphenyl]-3-yl)carbamoyl)-1-methyl-1,4,6,7-tetrahydro-5H-imidazo [4,5-c]pyridin-5-yl)ethyl)bicyclo[2.2.1]heptane-1-carboxylic acid] | 116 nM
2 | COc1cc(/C(F)=C/c2cccc(-c3cccc(NC(=O)c4nc5c(n4C)CCN(CCC46CCC(C(=O)O)(CC4)C6)C5)c3Cl)c2Cl)ncc1CNC12CC3CC(CC(C3)C1)C2 [Example 53, (Z)-4-(2-(2-((3′-(2-(5-((adamantan-1-ylamino)methyl)-4-methoxypyridin-2-yl)-2-fluorovinyl)-2,2′-dichloro-[1,1′-biphenyl]-3-yl)carbamoyl)-1-methyl-1,4,6,7-tetrahydro-5H-imidazo[4,5-c]pyridin-5-yl)ethyl)bicyclo[2.2.1]heptane-1-carboxylic acid] | 1040 nM
3 | COc1cc(/C(F)=C/c2cccc(-c3cccc(NC(=O)c4nc5c(n4C)CCN(CCC46CCC(C(=O)O)(CC4)C6)C5)c3Cl)c2Cl)ncc1CN(C)CCN(C)C [Example 54, (Z)-4-(2-(2-((2,2′-dichloro-3′-(2-(5-(((2-(dimethylamino)ethyl)(methyl)amino)methyl)-4-methoxypyridin-2-yl)-2-fluorovinyl)-[1,1′-biphenyl]-3-yl)carbamoyl)-1-methyl-1,4,6,7-tetrahydro-5H-imidazo [4,5-c]pyridin-5-yl)ethyl)bicyclo[2.2.1]heptane-1-carboxylic acid] | 250 nM
4 | COc1cc(/C(F)=C/c2cccc(-c3cccc(NC(=O)c4nc5c(n4C)CCN(CCC46CCC(C(=O)O)(CC4)C6)C5)c3Cl)c2Cl)ncc1CN1CCC2(CCC2)C1 [Example 55, (Z)-4-(2-(2-((3′-(2-(5-((6-azaspiro[3.4]octan-6-yl)methyl)-4-methoxypyridin-2-yl)-2-fluorovinyl)-2,2′-dichloro-[1,1′-biphenyl]-3-yl)carbamoyl)-1-methyl-1,4,6,7-tetrahydro-5H-imidazo[4,5-c]pyridin-5-yl)ethyl)bicyclo[2.2.1]heptane-1-carboxylic acid] | 149 nM
5 | COc1cc(/C(F)=C/c2cccc(-c3cccc(NC(=O)c4nc5c(n4C)CCN(CCC46CCC(C(=O)O)(CC4)C6)C5)c3Cl)c2Cl)ncc1CN1CC[C@@H](C)C1 [Example 56, (R,Z)-4-(2-(2-((2,2′-dichloro-3′-(2-fluoro-2-(4-methoxy-5-((3-methylpyrrolidin-1-yl)methyl)pyridin-2-yl)vinyl)-[1,1′-biphenyl]-3-yl)carbamoyl)-1-methyl-1,4,6,7-tetrahydro-5H-imidazo[4,5-c]pyridin-5-yl)ethyl)bicyclo[2.2.1]heptane-1-carboxylic acid] | 61.4 nM
6 | COc1cc(/C(F)=C/c2cccc(-c3cccc(NC(=O)c4nc5c(n4C)CCN(CCC46CCC(C(=O)O)(CC4)C6)C5)c3Cl)c2Cl)ncc1CN1C[C@@H](O)[C@H](F)C1 [Example 57, 4-(2-(2-((2,2′-dichloro-3′-((Z)-2-fluoro-2-(5-(((3R,4R)-3-fluoro-4-hydroxypyrrolidin-1-yl)methyl)-4-methoxypyridin-2-yl)vinyl)-[1,1-biphenyl]-3-yl)carbamoyl)-1-methyl-1,4,6,7-tetrahydro-5H-imidazo [4,5-c]pyridin-5-yl)ethyl)bicyclo[2.2.1]heptane-1-carboxylic acid] | 72 nM
7 | COc1cc(/C(F)=C/c2cccc(-c3cccc(NC(=O)c4nc5c(n4C)CCN(CCC46CCC(C(=O)O)(CC4)C6)C5)c3Cl)c2Cl)ncc1CN1CC[C@@H](F)C1 [Example 60, (R,Z)-4-(2-(2-((2,2′-dichloro-3′-(2-fluoro-2-(5-((3-fluoropyrrolidin-1-yl)methyl)-4-methoxypyridin-2-yl)vinyl)-[1,1′-biphenyl]-3-yl)carbamoyl)-1-methyl-1,4,6,7-tetrahydro-5H-imidazo[4,5-c]pyridin-5-yl)ethyl)bicyclo[2.2.1]heptane-1-carboxylic acid] | 134 nM
8 | COc1cc(/C(F)=C/c2cccc(-c3cccc(NC(=O)c4nc5c(n4C)CCN(CCC46CCC(C(=O)O)(CC4)C6)C5)c3Cl)c2Cl)ncc1CN1CCC(O)(C(F)(F)F)C1 (stereo not drawn) [Example 61, (Z)-4-(2-(2-((2,2′-dichloro-3′-(2-fluoro-2-(5-((3-hydroxy-3-(trifluoromethyl)pyrrolidin-1-yl)methyl)-4-methoxypyridin-2-yl)vinyl)-[1,1′-biphenyl]-3-yl)carbamoyl)-1-methyl-1,4,6,7-tetrahydro-5H-imidazo [4,5-c]pyridin-5-yl)ethyl)bicyclo[2.2.1]heptane-1-carboxylic acid] | 522 nM
9 | COc1cc(/C(F)=C/c2cccc(-c3cccc(NC(=O)c4nc5c(n4C)CCN(CCC46CCC(C(=O)O)(CC4)C6)C5)c3Cl)c2Cl)ncc1CN1CCC2(CC(O)C2)C1 (stereo not drawn) [Example 62, (Z)-4-(2-(2-((2,2′-dichloro-3′-(2-fluoro-2-(5-((2-hydroxy-6-azaspiro [3.4]octan-6-yl)methyl)-4-methoxypyridin-2-yl)vinyl)-[1,1′-biphenyl]-3-yl)carbamoyl)-1-methyl-1,4,6,7-tetrahydro-5H-imidazo[4,5-c]pyridin-5-yl)ethyl)bicyclo[2.2.1]heptane-1-carboxylic acid] | 117 nM
10 | COc1cc(/C(F)=C/c2cccc(-c3cccc(NC(=O)c4nc5c(n4C)CCN(CCC46CCC(C(=O)O)(CC4)C6)C5)c3Cl)c2Cl)ncc1CN(C)C(C)C [Example 63, (Z)-4-(2-(2-((2,2′-dichloro-3′-(2-fluoro-2-(5-((isopropyl(methyl)amino)methyl)-4-methoxypyridin-2-yl)vinyl)-[1,1′-biphenyl]-3-yl)carbamoyl)-1-methyl-1,4,6,7-tetrahydro-5H-imidazo[4,5-c]pyridin-5-yl)ethyl)bicyclo[2.2.1]heptane-1-carboxylic acid] | 159 nM
11 | COc1cc(/C(F)=C/c2cccc(-c3cccc(NC(=O)c4nc5c(n4C)CCN(CCC46CCC(C(=O)O)(CC4)C6)C5)c3Cl)c2Cl)ncc1CN1CCC(C)(C)C1 [Example 64, (Z)-4-(2-(2-((2,2′-dichloro-3′-(2-(5-((3,3-dimethylpyrrolidin-1-yl)methyl)-4-methoxypyridin-2-yl)-2-fluorovinyl)-[1,1′-biphenyl]-3-yl)carbamoyl)-1-methyl-1,4,6,7-tetrahydro-5H-imidazo[4,5-c]pyridin-5-yl)ethyl)bicyclo[2.2.1]heptane-1-carboxylic acid] | 113 nM
12 | COc1cc(/C(F)=C/c2cccc(-c3cccc(NC(=O)c4nc5c(n4C)CCN(CCC46CCC(C(=O)O)(CC4)C6)C5)c3Cl)c2Cl)ncc1CN1CCCCC1 [Example 65, (Z)-4-(2-(2-((2,2′-dichloro-3′-(2-fluoro-2-(4-methoxy-5-(piperidin-1-ylmethyl)pyridin-2-yl)vinyl)-[1,1′-biphenyl]-3-yl)carbamoyl)-1-methyl-1,4,6,7-tetrahydro-5H-imidazo[4,5-c]pyridin-5-yl)ethyl) bicyclo[2.2.1]heptane-1-carboxylic acid] | 137 nM
13 | COc1cc(/C(F)=C/c2cccc(-c3cccc(NC(=O)c4nc5c(n4C)CCN(CCC46CCC(C(=O)O)(CC4)C6)C5)c3Cl)c2Cl)ncc1CN1CC[C@@H](N(C)C)C1 [Example 66, (R,Z)-4-(2-(2-((2,2′-dichloro-3′-(2-(5-((3-(dimethylamino)pyrrolidin-1-yl)methyl)-4-methoxypyridin-2-yl)-2-fluorovinyl)-[1,1′-biphenyl]-3-yl)carbamoyl)-1-methyl-1,4,6,7-tetrahydro-5H-imidazo[4,5-c]pyridin-5-yl)ethyl)bicyclo[2.2.1]heptane-1-carboxylic acid] | 347 nM
14 | COc1cc(/C(F)=C/c2cccc(-c3cccc(NC(=O)c4nc5c(n4C)CCN(CCC46CCC(C(=O)O)(CC4)C6)C5)c3Cl)c2Cl)ncc1CN1CCCC1(C)C [Example 67, (Z)-4-(2-(2-((2,2′-dichloro-3′-(2-(5-((2,2-dimethylpyrrolidin-1-yl)methyl)-4-methoxypyridin-2-yl)-2-fluorovinyl)-[1,1′-biphenyl]-3-yl)carbamoyl)-1-methyl-1,4,6,7-tetrahydro-5H-imidazo[4,5-c]pyridin-5-yl)ethyl)bicyclo[2.2.1]heptane-1-carboxylic acid] | 54.1 nM
15 | COc1cc(/C(F)=C/c2cccc(-c3cccc(NC(=O)c4nc5c(n4C)CCN(CCC46CCC(C(=O)O)(CC4)C6)C5)c3Cl)c2Cl)ncc1CN1Cc2cccnc2C1 [Example 68, (Z)-4-(2-(2-((2,2′-dichloro-3′-(2-(5-((5,7-dihydro-6H-pyrrolo[3,4-b]pyridin-6-yl)methyl)-4-methoxypyridin-2-yl)-2-fluorovinyl)-[1,1′-biphenyl]-3-yl)carbamoyl)-1-methyl-1,4,6,7-tetrahydro-5H-imidazo [4,5-c]pyridin-5-yl)ethyl)bicyclo[2.2.1]heptane-1-carboxylic acid] | 954 nM

Reference: US12473282B2, “Biphenyl fluorine double bond derivative, preparation method therefor, and pharmaceutical application thereof” (Abbisko Therapeutics Co., Ltd., priority 2020, dated 2025)
